Molecular target: Mtb PanD Arg54 to alanine (Mycobacterium tuberculosis, UniProt P9WIL3, R54A)
Assay type: binding

In the case of `O=C(O)c1cnccn1` [POA, pyrazinoic acid], the “binding in ITC” value is reported as “no binding”.
